Source: PMC9068901, “Novel Inhibitors and Activity-Based Probes Targeting Trypsin-Like Serine Proteases” (Frontiers in Chemistry, 2022)
Like-named read-outs stand apart in the source and are kept apart here. *1 amine or outer side, *2 acyl side, *3 side chain or, on linkers, in order; H or OH if unused. Where a SMILES comes first, the peptide text is derived from it. Side-chain parts run from the residue outwards. [ ]: non-standard residue; d: D form. The star is where a group is joined. Biotin = O=C1N[C@H]2[C@H](CS[C@H]2CCCCC(=O)*)N1; Gly(N-(CH2)3-guanidino) = N=C(N)NCCCNCC(=O)O; Glutaryl = O=C(CCCC(=O)[*:2])[*:1]; X4 = O=C(Oc1c(F)c(F)c(F)c(F)c1F)*; X2 = O=C1CCC(=O)N1OC(=O)*; X3 = C#Cc1cccc(N*)c1; Ahx = NCCCCCC(=O)O; X1 = O=C(n1cncn1)*

Tests used:
human trypsin [1] = molecular target: T1, human trypsin (Homo sapiens, UniProt P07477); assay: Determination of inhibitor constants against trypsin (progress curves, Cbz-Gly-Gly-Arg-AMC); assay type: biochemical; conditions: for k3: first-order rate constant; for k3/Ki: second-order rate constant
Procedure: (§1) Recombinant protease activities were assessed using the cognate fluorogenic substrates (final concentration 50 μM) as follows: trypsin (Cbz-Gly-Gly-Arg-AMC), neutrophil elastase (MeO-Suc-Ala-Ala-Pro-Val-AMC) and chymotrypsin (Suc-Ala-Ala-Pro-Phe-AMC). The assay in the presence or absence of protease inhibitors at a range of final concentrations was performed using a standard microtitre plate format. Substrate hydrolysis, at 37°C, was monitored over a 60 min period by measuring the rate of increase in fluorescence (at λex 360 nm, λem 480 nm) using a FLUOstar Optima microplate reader (BMG Labtech).
A broad range of inhibitor concentrations were prepared from a 10 mM stock solution of the five test compounds (NAP851, NAP966, NAP987, NAP884 and NAP858) in N,N-dimethyformamide (DMF). The fluorogenic substrate, Cbz-Gly-Gly-Arg-AMC, was diluted in assay buffer (PBS, pH 7.4) and used at a fixed concentration of 50 μM. All inhibition assays were performed in microtitre plates maintained at 37°C in a final volume of 100 μL. The reaction was initiated by the addition of human trypsin (0.01 μg/well) and the rate of substrate hydrolysis continuously recorded at λex 360 nm, λem 480 nm using a FLUOstar Optima microplate reader (BMG Labtech). The resultant inhibition progress curve for the putative protease inhibitors were analysed according to the kinetic models developed by Tian and Tsou ([Tian and Tsou, 1982]) and Walker and Elmore ([Walker and Elmore, 1984]), for irreversible inhibitors, using GRAFIT (Erithacus Software) as described previously ([Ferguson et al., 2016]).

chymotrypsin = assay: Off-target fluorogenic substrate assay, chymotrypsin; assay type: biochemical; conditions: for inhibition of chymotrypsin relative to controls: 50 μM (highest concentration tested)
Procedure: as §1

thrombin = molecular target: T2, thrombin (Homo sapiens, UniProt P00734); assay: Activity-based probe labelling of thrombin; assay type: binding; conditions: 30 min, 37°C; heavy chain 31 kDa
T2 construct: purchased R and D Systems
Procedure: (§2) Samples of recombinant protease (trypsin, human airway trypsin-like protease (HAT), matriptase, thrombin or neutrophil elastase, as indicated in the relevant figure legends) were treated with putative ABPs at a concentration of 50 μM, for 30 min, at 37°C. A control sample was prepared by treating recombinant protease with solvent control only. A further sample was prepared where Cbz-Arg^P(OPh)2 was added 30 min prior to the addition of the ABP under examination. […] All treated samples were then denatured with SDS-containing reducing treatment buffer (10 min at 95°C), followed by resolution by SDS-PAGE and subjected to Western blotting. Note, only stable covalent bonds between the ABP and protease active site would survive the harsh denaturing conditions involved in the resolution process. Resolved proteins were then transferred on to nitrocellulose membrane and labelled with streptavidin-HRP. The ABP-protease complex was then visualised following treatment with Luminata Forte HRP substrate.

trypsin [2] = assay: Off-target fluorogenic substrate assay, trypsin; assay type: biochemical; conditions: across the range of concentrations studied, vs chymotrypsin and NE
Procedure: as §1

[3] = test system: trypsin-like proteases in German cockroach extract; assay: ABP of German cockroach extract; assay type: binding, Blattella germanica; conditions: probe 50 μM, 30 min, 37°C
Procedure: (§3) Cockroach extract was probed with NAP858 (50 μM) (± heat inactivation at 95°C, for 10 min), for 30 min, at 37°C. Samples were then denatured with SDS-containing reducing treatment buffer (10 min/95°C), followed by resolution by SDS-PAGE and protein transfer unto nitrocellulose membrane which was incubated with streptavidin-HRP (1 in 20,000). The membrane was visualised following treatment with Luminata Forte HRP substrate.
(§4) Removal of endogenous biotinylated proteins present in the cockroach extract was performed in some experiments to improve clarity of the Western blots obtained. Neutravidin agarose beads were washed three times with 1 ml wash buffer (150 mM NaCl, 50 mM Tris, 1 mM EGTA, 1% (v/v) NP-40, pH 7.4) then resuspended in PBS (pH 7.4). These neutravidin beads were then used to bind and remove (pre-clear) endogenous biotinylated proteins present in the cockroach extract. This involved rotation of the bead-cockroach extract mix at 4°C for 30 min followed by centrifugation to enable collection of the pre-cleared supernatant fraction. The bead fraction containing bound endogenous biotinylated proteins from cockroach extract was discarded. The supernatant was then probed with NAP858 (50 μM) (±Cbz-Arg^P(OPh)2), for 30 min, at 37°C, followed by addition of freshly washed neutravidin agarose beads. […]

trypsin [4] = assay: Activity-based probe labelling of trypsin (SDS-PAGE, Western blot, streptavidin-HRP); assay type: binding; conditions: probe 50 μM, 30 min, 37°C
Procedure: as §2

neutrophil elastase [5] = molecular target: T3, neutrophil elastase (Homo sapiens, UniProt P08246); assay: Off-target fluorogenic substrate assay, neutrophil elastase; assay type: biochemical; conditions: 50 μM (highest concentration tested); read-out: inhibition of NE (decrease in activity) relative to controls
T3 construct: purchased Calbiochem
T3 sequence (P08246 30-267): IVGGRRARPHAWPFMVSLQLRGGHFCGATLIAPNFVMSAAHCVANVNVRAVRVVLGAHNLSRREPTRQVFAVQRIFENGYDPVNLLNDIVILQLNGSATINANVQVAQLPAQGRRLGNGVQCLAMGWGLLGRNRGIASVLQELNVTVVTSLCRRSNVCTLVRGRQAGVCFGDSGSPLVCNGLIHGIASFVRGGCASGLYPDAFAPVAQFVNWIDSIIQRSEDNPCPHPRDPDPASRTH
Procedure: as §1

[6] = molecular target: T4, human airway trypsin-like protease (HAT) (Homo sapiens, UniProt O60235); assay: Activity-based probe labelling of HAT; assay type: binding; conditions: 30 min, 37°C; band at 25 kDa
T4 construct: purchased R and D Systems
Procedure: as §2

matriptase [7] = molecular target: T5, matriptase (Homo sapiens, UniProt Q9Y5Y6); assay: Activity-based probe labelling of matriptase; assay type: binding; conditions: 30 min, 37°C; band at 26 kDa
T5 construct: purchased R and D Systems
T5 sequence (Q9Y5Y6 615-855 limits assumed): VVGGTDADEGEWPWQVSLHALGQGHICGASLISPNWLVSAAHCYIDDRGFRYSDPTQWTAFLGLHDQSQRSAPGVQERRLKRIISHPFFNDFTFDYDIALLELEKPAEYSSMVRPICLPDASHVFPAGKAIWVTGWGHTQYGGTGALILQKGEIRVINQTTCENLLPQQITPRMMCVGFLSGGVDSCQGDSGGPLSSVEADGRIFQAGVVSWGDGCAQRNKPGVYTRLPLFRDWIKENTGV
Procedure: as §2

[8] = test system: trypsin-like proteases in American cockroach extract; assay: ABP of American cockroach extract; assay type: binding, Periplaneta americana; conditions: probe 50 μM, 30 min, 37°C
Procedure: as §3, §4

trypsin [9] = assay: Click chemistry labelling of trypsin with rhodamine-azide; assay type: binding; conditions: trypsin 1 μg
Procedure: (§5) Samples pre-treated with competitive inhibitor (Cbz-Arg^P(OPh)2 for trypsin and Cbz-Val^P(OPh)2 for neutrophil elastase) for 30 min prior to addition of NAP884, were included for comparison. Following treatment with NAP884, DMSO (25% v/v final concentration), rhodamine-X azide (60 µM final concentration), copper (II)-TBTA complex (1 mM final concentration) and freshly prepared sodium ascorbate (1 mM final concentration) were added. The samples were mixed and incubated at room temperature in the dark for 1 h with gentle agitation. Samples were then denatured with SDS-containing reducing treatment buffer (10 min at 95°C), followed by resolution by SDS-PAGE and visualisation under UV light.

neutrophil elastase [10] = molecular target: T3, neutrophil elastase; assay: Click chemistry labelling of neutrophil elastase with rhodamine-azide; assay type: binding; conditions: NE 1 μg, 30 min, 37°C
Procedure: as §5, with “Samples of recombinant protease (trypsin and neutrophil elastase) were treated with alkyne-containing probe NAP884 at a concentration of 50 μM, for 30 min at 37°C. Samples pre-treated” for “Samples pre-treated”

matriptase [11] = molecular target: T5, matriptase; set-up: method as in Reihill et al., 2016; conditions: in words; ref Reihill et al., 2016; cited from earlier work
HAT = test system: HAT; set-up: method as in Reihill et al., 2016; conditions: in words; ref Reihill et al., 2016; cited from earlier work
human trypsin [12] = molecular target: T1, human trypsin; set-up: method as in PMID 10611275; conditions: ref [30]; cited from earlier work
[13] = PBS pH 7.4, 37°C, 50 μM Cbz-Gly-Gly-Arg-AMC, ±S.E.M., three determinations, read-out: Ki
[14] = PBS pH 7.4, 37°C, ±S.E.M., three determinations

T4 sequence (O60235 187-418 limits assumed): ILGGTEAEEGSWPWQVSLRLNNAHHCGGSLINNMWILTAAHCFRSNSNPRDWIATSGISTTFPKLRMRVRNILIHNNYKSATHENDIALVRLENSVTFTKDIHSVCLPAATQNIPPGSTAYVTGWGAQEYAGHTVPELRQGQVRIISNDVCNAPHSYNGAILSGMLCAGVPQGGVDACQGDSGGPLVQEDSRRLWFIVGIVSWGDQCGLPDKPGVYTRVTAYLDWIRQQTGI
T4 sequence (O60235 44-186 partner limits assumed): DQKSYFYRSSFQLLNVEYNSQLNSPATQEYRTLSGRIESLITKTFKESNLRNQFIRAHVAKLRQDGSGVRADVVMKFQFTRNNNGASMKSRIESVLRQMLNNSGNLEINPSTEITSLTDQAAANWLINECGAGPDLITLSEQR

SMILES | Ki (human trypsin [1]; [13]) | k3 (human trypsin [1]; [14]) | k3/Ki (human trypsin [1]; [14]) | inhibition at 50 µM (neutrophil elastase [5]) | inhibition of chymotrypsin relative to controls (chymotrypsin) | selectivity of action for trypsin (trypsin [2]) | labelling of trypsin (trypsin [4]) | other results
N=C(N)NCCCN(CC(=O)NCC(=O)NCC(=O)NCCCCCC(=O)N[C@@H](CCCCNC(=O)CCCC[C@@H]1SC[C@@H]2NC(=O)N[C@@H]21)C(=O)O)C(=O)n1cncn1 [NAP851] (X1-[Gly(N-(CH2)3-guanidino)]GG[Ahx]K(Biotin)-OH; N-terminus assumed) | 7.56 µM | 0.160 (±0.020) min^−1 | 2.46 (±0.858) x 10^4 M^−1 min^−1 | – | – | – | – | substrate turnover at prolonged incubation (human trypsin [1]; progress curves, 60 min incubation): slight increase in fluorescence, due to residual substrate turnover; Ki (human trypsin [1]; read-out: Ki): ~7.6 µM; k3/Ki fold smaller than NAP858 (human trypsin [1]; trypsin): ~8 fold; k3/Ki fold smaller than NAP897/NAP884 (human trypsin [1]; trypsin): ~4 fold; k3/Ki fold smaller than NAP966 (human trypsin [1]; trypsin): ~6 fold
N=C(N)NCCCN(CC(=O)NCC(=O)NCC(=O)NCCCOCCOCCOCCCNC(=O)CCCC[C@@H]1SC[C@@H]2NC(=O)N[C@@H]21)C(=O)ON1C(=O)CCC1=O [NAP858] | 0.226 µM | 0.473 (±0.101) min^−1 | 2.06 (±0.884) x 10^6 M^−1 min^−1 | < 10% | < 10% | pronounced selectivity of action in inhibiting trypsin | labelling of a single protein band corresponding to the correct molecular mass of trypsin | labelling of thrombin (thrombin): can act as an AP for thrombin; bands detected in B. germanica extract [3]: close doublet of protein bands of similar molecular mass (≈25 kDa); labelling of HAT [6]: does indeed function as an AP for both proteases; labelling of matriptase (matriptase [7]): does indeed function as an AP for both proteases; bands detected in American cockroach extract [8]: single, intense band with an apparent molecular mass of 25 kDa
N=C(N)NCCCN(CC(=O)NCC(=O)NCC(=O)NCCCCCC(=O)N[C@@H](CCCCNC(=O)CCCC[C@@H]1SC[C@@H]2NC(=O)N[C@@H]21)C(=O)O)C(=O)Oc1c(F)c(F)c(F)c(F)c1F [NAP966] (X4-[Gly(N-(CH2)3-guanidino)]GG[Ahx]K(Biotin)-OH) | – | 0.401 (±0.007) min^−1 | 1.92 (±0.250) x 10^5 M^−1 min^−1 | – | – | – | – | Ki (human trypsin [1]; Ki): ~2.1 µM; Ki (human trypsin [1]; Ki, PBS pH 7.4, 37°C, 50 μM Cbz-Gly-Gly-Arg-AMC, ±S.E.M., three determinations): 2.12 µM
N=C(N)NCCC[C@H](NC(=O)CCC(=O)NCCCOCCOCCOCCCNC(=O)CCCC[C@@H]1SC[C@@H]2NC(=O)N[C@@H]21)P(=O)(Oc1ccccc1)Oc1ccccc1 [QUB-TL1] | – | – | – | – | – | – | – | inhibition of matriptase (matriptase [11]): potent inhibitor; inhibition of HAT (HAT): potent inhibitor; Ki (human trypsin [12]): 0.174 µM; k3 (human trypsin [12]): 0.284 min⁻¹; k3/Ki (human trypsin [12]): 27300 M⁻¹ s⁻¹

The next lines start with results.

Ki (human trypsin [1]; [13]) | k3 (human trypsin [1]; [14]) | k3/Ki (human trypsin [1]; [14]) | inhibition at 50 µM (neutrophil elastase [5]) | SMILES | inhibition of chymotrypsin relative to controls (chymotrypsin) | selectivity of action for trypsin (trypsin [2]) | labelling of trypsin (trypsin [4]) | other results
0.42 µM | 0.528 (±0.064) min^−1 | 1.34 (±0.351) x 10^6 M^−1 min^−1 | ~50% | C#Cc1cccc(NC(=O)CCCC(=O)NCCCC[C@H](NC(=O)CCCCCNC(=O)CNC(=O)CNC(=O)CN(CCCNC(=N)N)C(=O)ON2C(=O)CCC2=O)C(=O)O)c1 [NAP884] (X2-[Gly(N-(CH2)3-guanidino)]GG[Ahx]K([Glutaryl-X3])-OH) | – | pronounced selectivity of action in inhibiting trypsin | – | inhibitory behaviour against chymotrypsin (chymotrypsin; in words): similarly discriminating inhibitory behaviour against trypsin compared to chymotrypsin; detection of trypsin (trypsin [9]; probe 1 μM): not detectable; detection of trypsin (trypsin [9]; probe 10 μM): enabled the detection of trypsin; detection of trypsin (trypsin [9]; probe 50 μM): enabled the detection of trypsin; labelling of NE (neutrophil elastase [10]): complete absence of labelling of NE
0.663 µM | 0.741 (±0.225) min^−1 | 1.35 (±0.376) x 10^6 M^−1 min^−1 | < 10% | N=C(N)NCCCN(CC(=O)NCC(=O)NCC(=O)NCCCCCC(=O)N[C@@H](CCCCNC(=O)CCCC[C@@H]1SC[C@@H]2NC(=O)N[C@@H]21)C(=O)O)C(=O)ON1C(=O)CCC1=O [NAP897] (X2-[Gly(N-(CH2)3-guanidino)]GG[Ahx]K(Biotin)-OH) | < 10% | pronounced selectivity of action in inhibiting trypsin | labelling of a single protein band corresponding to the correct molecular mass of trypsin | –
